Measurements from ChEMBL document CHEMBL2424622, “Development of amino-pyrimidine inhibitors of c-Jun N-terminal kinase (JNK): kinase profiling guided optimization of a 1,2,3-benzotriazole lead” (Bioorg Med Chem Lett, 2013).

Assays:
[1] = AUC (0 to infinity) in Hanover-Wistar rat at 20 mg/kg, po; type: ADME, organism-based; set-up: time infinity, dose 20 mg/kg, route oral; conditions: plasma
[2] = target: Serine/threonine-protein kinase 16 (Homo sapiens, UniProt O75716); test: Binding affinity to STK16 (unknown origin)
[3] = target: Myosin light chain kinase family member 4 (Homo sapiens, UniProt Q86YV6); test: Binding affinity to SgK085 (unknown origin)
[4] = target: Mitogen-activated protein kinase 9 (Homo sapiens, UniProt P45984); test: Binding affinity to JNK2 (unknown origin)
[5] = target: Mitogen-activated protein kinase 15 (Homo sapiens, UniProt Q8TD08); test: Binding affinity to ERK8 (unknown origin)
[6] = target: Mitogen-activated protein kinase 6 (Homo sapiens, UniProt Q16659); test: Binding affinity to ERK3 (unknown origin)
[7] = target: Death-associated protein kinase 1 (Homo sapiens, UniProt P53355); test: Binding affinity to DAPK1 (unknown origin)
Chain of Death-associated protein kinase 1 (P53355 whole entry): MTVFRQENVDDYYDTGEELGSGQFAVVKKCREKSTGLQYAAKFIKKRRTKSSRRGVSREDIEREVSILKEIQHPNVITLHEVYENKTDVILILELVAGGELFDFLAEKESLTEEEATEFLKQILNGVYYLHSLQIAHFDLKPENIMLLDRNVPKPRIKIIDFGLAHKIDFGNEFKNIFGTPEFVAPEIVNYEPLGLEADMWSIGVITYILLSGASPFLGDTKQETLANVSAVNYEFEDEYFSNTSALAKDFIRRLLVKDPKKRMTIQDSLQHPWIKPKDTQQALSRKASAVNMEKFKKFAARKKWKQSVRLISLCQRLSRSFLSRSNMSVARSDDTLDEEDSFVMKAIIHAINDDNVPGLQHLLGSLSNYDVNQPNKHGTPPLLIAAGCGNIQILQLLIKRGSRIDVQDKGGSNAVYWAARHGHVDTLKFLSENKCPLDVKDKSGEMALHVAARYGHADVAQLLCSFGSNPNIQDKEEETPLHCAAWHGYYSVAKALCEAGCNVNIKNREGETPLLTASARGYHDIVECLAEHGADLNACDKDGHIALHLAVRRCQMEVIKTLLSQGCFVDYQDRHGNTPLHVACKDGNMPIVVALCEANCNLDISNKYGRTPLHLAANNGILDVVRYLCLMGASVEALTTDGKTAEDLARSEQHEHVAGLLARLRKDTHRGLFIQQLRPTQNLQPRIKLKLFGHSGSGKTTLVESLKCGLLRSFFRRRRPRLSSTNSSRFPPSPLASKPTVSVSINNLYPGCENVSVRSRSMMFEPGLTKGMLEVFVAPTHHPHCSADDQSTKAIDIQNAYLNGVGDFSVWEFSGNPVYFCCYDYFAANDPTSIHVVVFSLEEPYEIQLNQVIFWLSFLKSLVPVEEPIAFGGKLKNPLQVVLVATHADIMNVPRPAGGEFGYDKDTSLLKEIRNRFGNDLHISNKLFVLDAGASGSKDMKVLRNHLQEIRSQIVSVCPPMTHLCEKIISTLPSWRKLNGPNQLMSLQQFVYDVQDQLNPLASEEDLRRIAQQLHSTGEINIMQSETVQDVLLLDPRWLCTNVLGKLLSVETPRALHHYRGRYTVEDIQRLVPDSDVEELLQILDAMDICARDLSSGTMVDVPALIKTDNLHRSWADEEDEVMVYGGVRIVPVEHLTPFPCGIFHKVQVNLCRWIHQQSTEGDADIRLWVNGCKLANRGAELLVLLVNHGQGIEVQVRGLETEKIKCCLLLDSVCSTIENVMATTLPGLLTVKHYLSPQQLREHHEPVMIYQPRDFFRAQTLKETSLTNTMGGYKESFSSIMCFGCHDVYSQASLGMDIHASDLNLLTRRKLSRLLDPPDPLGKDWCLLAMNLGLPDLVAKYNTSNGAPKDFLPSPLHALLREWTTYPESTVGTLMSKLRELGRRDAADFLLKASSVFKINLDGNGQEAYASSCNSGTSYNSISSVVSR

Chain of Serine/threonine-protein kinase 16 (O75716 whole entry): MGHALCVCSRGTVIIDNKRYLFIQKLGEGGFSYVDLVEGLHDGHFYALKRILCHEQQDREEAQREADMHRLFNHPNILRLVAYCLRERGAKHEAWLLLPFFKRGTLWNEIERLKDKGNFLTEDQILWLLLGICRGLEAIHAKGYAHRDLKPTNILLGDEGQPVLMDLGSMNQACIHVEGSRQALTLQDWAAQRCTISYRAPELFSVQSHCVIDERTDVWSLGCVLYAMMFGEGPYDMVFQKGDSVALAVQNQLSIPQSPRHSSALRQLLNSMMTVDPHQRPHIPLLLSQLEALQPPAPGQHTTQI
Chain of Myosin light chain kinase family member 4 (Q86YV6 whole entry): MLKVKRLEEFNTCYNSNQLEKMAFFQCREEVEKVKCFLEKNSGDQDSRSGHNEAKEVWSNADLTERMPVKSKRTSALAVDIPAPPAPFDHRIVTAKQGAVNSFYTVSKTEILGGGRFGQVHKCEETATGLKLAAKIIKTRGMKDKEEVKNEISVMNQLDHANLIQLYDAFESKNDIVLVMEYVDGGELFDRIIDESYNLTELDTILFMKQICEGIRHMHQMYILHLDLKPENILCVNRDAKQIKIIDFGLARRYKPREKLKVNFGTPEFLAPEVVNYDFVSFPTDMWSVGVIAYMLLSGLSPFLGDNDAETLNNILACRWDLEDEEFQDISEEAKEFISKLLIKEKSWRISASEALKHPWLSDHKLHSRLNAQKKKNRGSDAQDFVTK
Chain of Mitogen-activated protein kinase 15 (Q8TD08 whole entry): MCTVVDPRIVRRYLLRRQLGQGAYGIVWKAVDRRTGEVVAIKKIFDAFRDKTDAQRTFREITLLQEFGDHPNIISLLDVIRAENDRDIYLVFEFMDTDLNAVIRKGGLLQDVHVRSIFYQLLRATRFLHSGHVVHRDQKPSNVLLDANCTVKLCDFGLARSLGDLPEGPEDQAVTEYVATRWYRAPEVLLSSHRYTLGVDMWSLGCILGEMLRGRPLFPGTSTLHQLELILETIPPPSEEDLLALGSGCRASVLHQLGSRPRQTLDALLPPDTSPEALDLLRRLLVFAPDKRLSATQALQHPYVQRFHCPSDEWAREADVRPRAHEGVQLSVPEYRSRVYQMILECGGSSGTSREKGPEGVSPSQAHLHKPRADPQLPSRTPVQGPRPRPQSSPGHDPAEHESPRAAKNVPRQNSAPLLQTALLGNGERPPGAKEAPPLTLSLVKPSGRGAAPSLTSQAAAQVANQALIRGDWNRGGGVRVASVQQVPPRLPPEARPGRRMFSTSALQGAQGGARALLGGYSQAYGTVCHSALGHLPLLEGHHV
Chain of Mitogen-activated protein kinase 9 (P45984 whole entry): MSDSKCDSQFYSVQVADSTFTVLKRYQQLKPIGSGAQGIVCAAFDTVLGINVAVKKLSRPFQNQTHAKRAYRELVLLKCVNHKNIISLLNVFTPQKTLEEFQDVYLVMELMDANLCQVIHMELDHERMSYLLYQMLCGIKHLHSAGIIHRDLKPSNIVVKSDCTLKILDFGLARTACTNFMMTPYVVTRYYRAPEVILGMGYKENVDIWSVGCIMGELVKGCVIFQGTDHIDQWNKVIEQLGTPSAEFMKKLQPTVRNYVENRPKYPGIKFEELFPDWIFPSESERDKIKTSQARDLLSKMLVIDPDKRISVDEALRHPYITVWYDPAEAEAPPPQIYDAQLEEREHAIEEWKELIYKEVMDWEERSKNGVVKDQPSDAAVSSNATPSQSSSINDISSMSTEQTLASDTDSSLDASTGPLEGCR
Chain of Mitogen-activated protein kinase 6 (Q16659 whole entry): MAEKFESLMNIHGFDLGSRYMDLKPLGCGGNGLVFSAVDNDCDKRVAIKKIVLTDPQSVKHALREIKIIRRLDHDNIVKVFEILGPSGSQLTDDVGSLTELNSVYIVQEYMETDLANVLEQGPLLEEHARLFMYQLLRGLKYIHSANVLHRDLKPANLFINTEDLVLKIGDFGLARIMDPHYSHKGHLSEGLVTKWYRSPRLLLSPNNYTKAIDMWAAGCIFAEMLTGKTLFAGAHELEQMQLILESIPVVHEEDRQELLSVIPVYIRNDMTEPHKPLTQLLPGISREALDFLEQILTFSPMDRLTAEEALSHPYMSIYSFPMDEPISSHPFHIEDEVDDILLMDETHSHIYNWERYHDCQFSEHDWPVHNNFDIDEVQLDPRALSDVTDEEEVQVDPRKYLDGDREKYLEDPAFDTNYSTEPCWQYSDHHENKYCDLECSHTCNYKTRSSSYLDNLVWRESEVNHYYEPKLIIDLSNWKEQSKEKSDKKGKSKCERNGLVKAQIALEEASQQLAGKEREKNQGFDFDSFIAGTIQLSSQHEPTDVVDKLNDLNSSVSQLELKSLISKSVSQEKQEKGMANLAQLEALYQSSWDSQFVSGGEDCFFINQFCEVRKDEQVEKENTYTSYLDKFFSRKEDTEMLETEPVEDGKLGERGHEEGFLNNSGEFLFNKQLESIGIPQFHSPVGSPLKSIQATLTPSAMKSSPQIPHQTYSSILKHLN

AUC(0-inf) [1]: 9330 ng·h/mL
Kd [2]: 450 nM
Kd [3]: 620 nM
Kd [4]: 13 nM
Kd [6]: 330 nM
SMILES: CS(=O)(=O)CCCOc1cccc2c1ccn2-c1ccnc(N[C@H]2CC[C@H](C(=O)N3CCC(O)CC3)CC2)n1
Kd [5]: 650 nM
Kd [7]: 380 nM
